Assays:
DRG neurons = assay: Ca2+ imaging in DRG neurons from wild-type mice; assay type: cell-based, mouse; conditions: 1.5 mM, 3 MAC
Procedure: Ca^2+ Imaging. Neurons were loaded with 1 μM Fluo4-AM (Molecular Probes) for 20 min and washed for a further 10-20 min before recording. The dye was excited at 488±15 nm. Emitted fluorescence was filtered with a 535±25 nm bandpass filter, captured by a SPOT RT digital camera (Diagnostic Instruments) and read into a computer. Analysis was performed offline by using Simple PCI software (Compix Inc.).

mouse TRPA1 = target: T1, mouse TRPA1 (Mus musculus, UniProt Q8BLA8); assay: Current-voltage recordings in mTRPA1-expressing HEK293 cells; assay type: cell-based; conditions: desflurane 1 mM
T1 construct: expressed in transfected cells; host or cells: HEK293
Procedure: A genetic approach was used to identify critical sites in TRPA1 and TRPV1 required for activation by general anesthetics. Drosophila TRPA1 is insensitive to desflurane (at concentrations up to 3 mM). […] Note that dTRPA1 is insensitive to AITC. Next, several chimeric TRP proteins containing dTRPA1 (unresponsive to desflurane) and mTRPA1 were tested. For the dTRPA1-mN chimera, the mouse 720 amino acid N-terminus was exchanged for the drosophila N-terminus. The N-terminal domain contains essential binding sites for AITC, and therefore studying this chimera tests an important role for the N-terminus in anesthetic-sensing. […] The mTRPA1-dTM5 construct was then studied, which is the mouse protein containing the fifth transmembrane domain of the drosophila protein.

TRPV1 = target: T2, TRPV1 (Mus musculus, UniProt Q704Y3); assay: Patch-clamp of capsaicin-sensitive sensory neurons (nodose ganglia); assay type: cell-based
T2 construct: endogenous in cells; host or cells: primary nodose ganglion neurons of adult C57Bl6/J mice
Procedure: HEK cell and sensory neuron electrophysiology. HEK 293F cells (Invitrogen) were cultured in DMEM supplemented with 1% non-essential amino acids and 10% fetal calf serum. Cell cultures were maintained at 37° C. with 5% CO2. Cells were transfected with rat TRPV 1 (gift of David Julius), and GFP cDNA using Lipofectamine™ Transfection Reagent (Invitrogen) and used 24-48 h after transfection. Nodose ganglia were obtained from adult mice (C57B16/J and TRPV1-null), cut, digested with collagenase, and cultured in Neurobasal +2% B-27 medium (Invitrogen), 0.1% L-glutamine and 1% penicillin/streptomycin on poly-D lysine-coated glass coverslips at 37° C. in 5% CO2. Neurons were used within 24-36 hr of culture. Whole-cell and single-channel patch clamp recordings were performed using an EPC8 amplifier (HEKA). The current signal was low-pass filtered at 1-3 kHz and sampled at 4 kHz. Currents were further filtered for display purposes. For whole-cell and excised patch recordings the bath solution contained (in mM): 140 NaCl, 4 KCl, 1 MgCl2, 1 EGTA, 10 HEPES, 10 glucose pH 7.3 (290 mOsm). The pipette solution contained (in mM): 140 CsC1, 10 NaCl, 10 HEPES, 5 EGTA, 2 Mg ATP and 0.03 GTP, pH 7.3. The peak amplitudes measured either during the prepulse or the tail current (within 1 ms) were plotted as a function of the test potential and normalized to the maximal current obtained from the following Boltzmann function: […]

mutant S502A/S800A TRPV1 = target: T3, mutant S502A/S800A TRPV1 (Rattus norvegicus, UniProt O35433, S502A/S800A); assay: Heat activation in oocytes expressing mutant S502A/S800A TRPV1; assay type: cell-based
T3 construct: expressed in transfected cells; host or cells: Xenopus laevis oocytes (cRNA injection)
Procedure: Oocyte electrophysiology. […] Oocytes were placed in a Perspex chamber and continuously superfused (5 ml min-1) with Ca2+-free solution containing (in mM): 100 NaCl, 2.5 KCl, 5 HEPES, 1 MgCl2 and titrated to pH 7.3 with 5 mM NaOH. For solutions <pH 6.0, HEPES was replaced with either 5 mM MES or 5 mM sodium citrate. Oocytes were routinely voltage-clamped at -60 mV at 22-23° C.

TRPM8 = target: T4, TRPM8 (Rattus norvegicus, UniProt Q8R455); assay: Whole-cell patch-clamp of TRPM8-expressing HEK293 cells; assay type: cell-based
T4 construct: expressed in transfected cells; host or cells: HEK 293F
Procedure: Electrophysiology. […] Whole-cell and single-channel patch-clamp recordings were performed by using an EPC8 amplifier (HEKA Electronics). For whole-cell and excised patch recordings the bath solution contained 140 mMNaCl, 4 mMKCl, 1 mMMgCl2, 1.2 mMCaCl2, 10 mMHepes, 10 mM glucose, pH 7.3. For cell-attached experiments, NaCl was replaced with KCl in the bath solution. […] For neuronal recording NaCl was replaced with K-gluconate (plus 1 mMATP, 0.2 mM GTP). Solutions were applied via a gravity-fed system. […] Voltage-dependent properties were measured as described in Matt and Ahern, J. Physiol. […] The baseline currents under control conditions were subtracted. For cell-attached experiments, peak amplitudes were measured from all-points histograms, and open probability was measured as NPo>750 ms. Defolliculated Xenopus laevis oocytes were injected with ≈10 ng of hTRPA1 (gift of Ardem Patapoutian, The Scripps Research Institute, La Jolla, Calif.).

T2 sequence (Q704Y3 whole entry): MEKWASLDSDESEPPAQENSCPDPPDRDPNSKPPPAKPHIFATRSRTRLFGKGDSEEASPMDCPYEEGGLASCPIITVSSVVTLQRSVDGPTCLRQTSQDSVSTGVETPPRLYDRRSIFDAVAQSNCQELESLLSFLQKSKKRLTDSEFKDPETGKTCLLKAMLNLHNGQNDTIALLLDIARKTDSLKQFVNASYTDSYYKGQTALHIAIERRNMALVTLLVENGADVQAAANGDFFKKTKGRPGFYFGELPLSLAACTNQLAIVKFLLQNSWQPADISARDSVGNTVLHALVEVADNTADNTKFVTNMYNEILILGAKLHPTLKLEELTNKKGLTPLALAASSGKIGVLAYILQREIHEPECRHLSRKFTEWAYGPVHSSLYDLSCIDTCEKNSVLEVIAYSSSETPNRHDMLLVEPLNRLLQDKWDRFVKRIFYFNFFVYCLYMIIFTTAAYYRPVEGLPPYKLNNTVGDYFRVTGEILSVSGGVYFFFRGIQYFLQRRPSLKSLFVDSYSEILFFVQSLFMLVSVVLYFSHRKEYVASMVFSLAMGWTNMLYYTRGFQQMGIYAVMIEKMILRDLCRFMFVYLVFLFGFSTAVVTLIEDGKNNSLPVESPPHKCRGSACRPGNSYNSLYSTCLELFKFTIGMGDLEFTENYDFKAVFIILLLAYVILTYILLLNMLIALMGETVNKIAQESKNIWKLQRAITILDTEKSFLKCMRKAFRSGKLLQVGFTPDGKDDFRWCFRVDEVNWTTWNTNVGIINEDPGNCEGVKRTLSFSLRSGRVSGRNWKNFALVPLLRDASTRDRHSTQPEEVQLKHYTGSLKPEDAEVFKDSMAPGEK
T3 sequence (O35433 whole entry S502A/S800A): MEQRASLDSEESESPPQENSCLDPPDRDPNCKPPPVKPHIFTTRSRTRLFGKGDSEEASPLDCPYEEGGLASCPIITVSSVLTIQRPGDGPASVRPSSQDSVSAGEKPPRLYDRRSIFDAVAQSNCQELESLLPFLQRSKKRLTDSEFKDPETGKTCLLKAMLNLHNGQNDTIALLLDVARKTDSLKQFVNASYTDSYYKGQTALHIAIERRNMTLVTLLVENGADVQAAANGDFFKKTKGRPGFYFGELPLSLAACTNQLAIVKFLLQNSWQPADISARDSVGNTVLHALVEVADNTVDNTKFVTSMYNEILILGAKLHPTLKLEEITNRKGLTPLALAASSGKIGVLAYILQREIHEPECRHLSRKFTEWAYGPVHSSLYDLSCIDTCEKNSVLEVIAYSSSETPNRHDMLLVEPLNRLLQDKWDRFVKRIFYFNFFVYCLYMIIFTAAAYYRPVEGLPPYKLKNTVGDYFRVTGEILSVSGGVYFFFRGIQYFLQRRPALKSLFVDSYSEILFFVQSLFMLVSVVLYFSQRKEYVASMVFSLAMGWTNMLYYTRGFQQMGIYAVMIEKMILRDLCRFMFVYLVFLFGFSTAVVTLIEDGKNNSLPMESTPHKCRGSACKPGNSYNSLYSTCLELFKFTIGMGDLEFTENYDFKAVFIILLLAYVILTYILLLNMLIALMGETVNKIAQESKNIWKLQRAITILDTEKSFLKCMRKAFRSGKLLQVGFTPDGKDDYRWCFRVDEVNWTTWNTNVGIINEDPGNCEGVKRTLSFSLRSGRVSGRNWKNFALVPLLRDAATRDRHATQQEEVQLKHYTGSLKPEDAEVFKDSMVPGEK
T4 sequence (Q8R455 whole entry): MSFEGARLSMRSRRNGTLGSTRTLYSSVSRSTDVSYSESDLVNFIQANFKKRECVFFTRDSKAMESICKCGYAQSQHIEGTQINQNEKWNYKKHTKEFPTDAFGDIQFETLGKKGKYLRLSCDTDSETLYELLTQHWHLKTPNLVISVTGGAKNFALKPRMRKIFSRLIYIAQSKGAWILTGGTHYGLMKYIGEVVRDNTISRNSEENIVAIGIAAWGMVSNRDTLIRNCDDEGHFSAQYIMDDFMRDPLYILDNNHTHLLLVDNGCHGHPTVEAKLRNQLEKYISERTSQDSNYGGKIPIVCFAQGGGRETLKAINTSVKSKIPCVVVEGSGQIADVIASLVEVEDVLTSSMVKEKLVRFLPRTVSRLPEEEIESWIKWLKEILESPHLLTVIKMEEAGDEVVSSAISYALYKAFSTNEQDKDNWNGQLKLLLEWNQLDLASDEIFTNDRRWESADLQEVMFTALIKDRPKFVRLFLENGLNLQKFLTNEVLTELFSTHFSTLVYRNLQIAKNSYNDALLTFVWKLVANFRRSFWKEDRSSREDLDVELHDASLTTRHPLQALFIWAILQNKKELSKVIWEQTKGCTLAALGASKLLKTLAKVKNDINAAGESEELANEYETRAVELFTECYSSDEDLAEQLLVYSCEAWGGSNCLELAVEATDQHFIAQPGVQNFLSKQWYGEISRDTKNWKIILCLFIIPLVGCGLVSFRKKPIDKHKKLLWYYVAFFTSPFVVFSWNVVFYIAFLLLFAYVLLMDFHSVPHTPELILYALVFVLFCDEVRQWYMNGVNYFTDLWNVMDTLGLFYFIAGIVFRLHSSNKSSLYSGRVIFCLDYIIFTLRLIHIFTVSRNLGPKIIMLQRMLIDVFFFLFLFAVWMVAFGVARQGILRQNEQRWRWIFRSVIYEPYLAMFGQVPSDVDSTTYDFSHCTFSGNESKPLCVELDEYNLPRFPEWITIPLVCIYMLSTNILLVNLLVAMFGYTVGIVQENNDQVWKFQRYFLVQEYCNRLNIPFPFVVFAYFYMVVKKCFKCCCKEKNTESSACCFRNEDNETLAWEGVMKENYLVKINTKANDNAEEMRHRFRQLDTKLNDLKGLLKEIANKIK
T1 sequence (Q8BLA8 whole entry): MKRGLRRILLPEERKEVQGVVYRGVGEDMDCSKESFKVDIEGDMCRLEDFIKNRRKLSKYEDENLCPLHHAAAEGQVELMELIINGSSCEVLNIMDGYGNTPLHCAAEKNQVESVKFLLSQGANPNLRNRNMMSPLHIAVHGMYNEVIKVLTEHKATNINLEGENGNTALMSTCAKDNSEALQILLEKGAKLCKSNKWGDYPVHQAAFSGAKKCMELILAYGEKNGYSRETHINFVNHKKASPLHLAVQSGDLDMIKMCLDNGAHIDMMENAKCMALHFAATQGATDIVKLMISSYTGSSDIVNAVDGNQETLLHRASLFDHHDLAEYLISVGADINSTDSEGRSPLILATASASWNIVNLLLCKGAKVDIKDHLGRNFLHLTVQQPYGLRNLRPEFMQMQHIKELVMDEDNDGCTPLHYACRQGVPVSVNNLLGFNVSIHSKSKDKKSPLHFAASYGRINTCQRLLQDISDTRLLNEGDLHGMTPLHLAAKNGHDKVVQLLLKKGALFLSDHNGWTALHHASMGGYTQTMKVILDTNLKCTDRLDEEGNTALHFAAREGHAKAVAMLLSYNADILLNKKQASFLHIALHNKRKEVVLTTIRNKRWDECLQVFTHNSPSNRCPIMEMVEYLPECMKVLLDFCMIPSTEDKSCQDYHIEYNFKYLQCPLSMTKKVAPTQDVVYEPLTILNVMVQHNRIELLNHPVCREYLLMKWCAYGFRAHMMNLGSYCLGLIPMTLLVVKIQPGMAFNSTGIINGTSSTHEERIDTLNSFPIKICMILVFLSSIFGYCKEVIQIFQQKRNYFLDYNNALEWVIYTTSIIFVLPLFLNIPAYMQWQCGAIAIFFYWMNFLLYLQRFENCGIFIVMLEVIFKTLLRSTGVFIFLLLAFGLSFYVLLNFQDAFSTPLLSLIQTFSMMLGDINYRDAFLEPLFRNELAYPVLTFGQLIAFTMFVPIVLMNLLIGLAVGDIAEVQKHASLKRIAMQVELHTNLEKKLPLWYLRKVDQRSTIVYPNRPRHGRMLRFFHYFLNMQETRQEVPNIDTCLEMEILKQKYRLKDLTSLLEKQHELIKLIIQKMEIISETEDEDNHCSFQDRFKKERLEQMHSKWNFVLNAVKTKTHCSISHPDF

Row | Compound | Neurons with evoked Ca2+ increase (DRG neurons) | Activation of mouse TRPA1 (mouse TRPA1) | Capsaicin-evoked single channel activity (TRPV1; cell-free outside-out patches, capsaicin 30 nM, isoflurane 0.9 mM) | Single TRPV1 channel activity in neurons after PDBu treatment (TRPV1; isoflurane 0.9 mM) | Response of sensory neurons under control conditions (TRPV1; isoflurane 0.9 mM, AITC-insensitive neurons) | Enhancement of capsaicin-evoked whole-cell currents (TRPV1; isoflurane 0.9 mM, capsaicin 30 nM, n=5) | Response of sensory neurons after BK treatment (TRPV1; isoflurane 0.9 mM, n=7, P<0.01) | Membrane excitability under current-clamp, co-application with BK (TRPV1; n=3) | Temperature threshold, mutant S502A/S800A TRPV1 (mutant S502A/S800A TRPV1; PDBu+isoflurane, n=3) | Temperature threshold, mutant S502A/S800A TRPV1 (mutant S502A/S800A TRPV1; isoflurane, n=5) | Activation of TRPM8 currents (TRPM8; 0.9 mM (2.9 MAC)) | Effects at TRPM8 at holding potential −50 mV (TRPM8; isoflurane 0.9 mM, octanol 1 mM)
1 | FC(F)OC(F)C(F)(F)F (stereo not drawn) [desflurane] | 36 of 123 | activates |  |  |  |  |  |  |  |  |  | 
2 | FC(F)OC(Cl)C(F)(F)F (stereo not drawn) [isoflurane] |  |  | increased | activated | negligible responses | approximately 3 fold | marked increase in current | depolarized neurons and initiated sustained spike discharge | 37.3±0.7 °C | 39.4±1.9 °C | failed to activate | negligible effects

From patent US20110104301A1, “METHODS OF REDUCING PAIN AND INFLAMMATION” (Georgetown University, A Congressionally Chartered …, priority 2008, published 2011)
